# In US10092586B2, “Glycolipid containing compositions for use in the treatment of tumors” (Agalimmune Limited (GB/GB), priority 2014, dated 2018):
# Several values for one entry are separate records, joined by “and”; a condition that tells them apart may be missing. Equal values may be shown once. Read-outs that look alike come from different tables or passages of the source.
# What was measured:
# [1] = tested on: B16-F10 melanoma cells; experiment: GT KO mouse melanoma model, distal tumour development; format: in vivo
# Method: FIG. 7: Dose titration experiments with α-Gal BOEL. Anti-Gal producing GT KO mice were injected with 1×10^6 B16-F10 melanoma cells for primary tumour growth on their right flanks and 1×10^4 B16-F10 cells for secondary/distal tumour injection on the opposite flank. 5 days later, the main tumours were intra-tumourally treated with PBS (open circles), or 0.1 mg α-Gal BOEL (open triangles), or 0.5 mg α-Gal BOEL (closed triangles), or 1 mg of α-Gal BOEL (closed circles). The development of visible distal tumours as model for metastases development was followed for up to 32 days. The percentages of mice without visible distal tumours are plotted in the graphs. Statistical differences between the groups were determined by log-rank test.
# FIG. 8: α-Gal BOEL activity in anti-Gal producing mice (i.e mice immunized with pig kidney membranes) or mice lacking anti-Gal (i.e. non-immunized mice). Hyper-immunized or non-immunized GT KO mice were injected with 1×10^6 B16-F10 cells for primary tumour growth on their right flanks and either 1×10^4 B16-F10 cells for secondary/distal tumour injection on the opposite flank. 4 days later, the main tumours were intra-tumourally treated with PBS in hyper-immunized mice (open circles), or 1 mg α-Gal BOEL (closed circles for hyper-immunized mice; open squares for non-immunized mice). The development of visible distal tumours as model for metastases development was followed for up to 28 days. The percentages of mice without visible distal tumours are plotted in the graph. Statistical differences between the groups were determined by log-rank test.
# In vivo pharmacodynamics experiments were conducted to assess the effects of α-Gal BOEL in a GT KO mouse melanoma model with B16-F10 melanoma cells. […] As a result, the GT KO mice can be immunized with pig kidney membrane homogenate to produce titers of IgG and IgM anti-Gal antibodies that are similar to those seen naturally in humans. Such an immune response is induced since pig kidney membranes contain a high concentration of α-Gal epitopes on cell membranes and in intercellular matrix.
# In the B16-F10 melanoma model, mice were injected with cultured B16-F10 cells on both flanks, on one side they were injected with 1×10^6 melanoma cells to create a primary tumour and with a reduced cell number on the contra-lateral flank (1×10^4 melanoma cells) to create a model of a ‘distant metastasis’ also referred to as secondary tumour. Primary tumours are injected intratumourally with α-Gal BOEL or vehicle control when a predefined tumour diameter is reached. The critical endpoint recorded is growth of the ‘distant’ tumour; this is used to measure the ability of an agent to elicit an effective protective anti-tumour immune response throughout the body. Doses from 0.1-2.5 mg of α-Gal BOEL were tested.
# [2] = tested on: CHO-K1 cells; experiment: Complement dependent cell cytotoxicity/cell lysis (CDC) assay; format: cell-based
# Method: The assays below quantify both the amount of α-Gal BOEL inserted into the cell plasma membranes and the functional impact of α-Gal BOEL insertion in stimulating anti-Gal mediated complement-dependent cytotoxicity (CDC). α-Gal BOEL is titrated and incubated with CHO-K1 cells. These cells are either fixed and used in a whole cell ELISA assay, to determine incorporation of α-Gal into membranes, or incubated with anti-Gal antibody and human serum to measure CDC (or general cytotoxicity in the absence of complement from human serum).
# (§1) α-Gal BOEL is titrated as follows. One 40 μl aliquot of α-Gal BOEL (2 mg/ml (obtained from Sigma as FSL-Galili(tri)™, Catalogue No. F9432)) is thawed and sonicated for 30 seconds. 40 μl of phosphate buffered saline (PBS) is added to the tube and vortexed for 10 seconds. 25 μl of this mix is added to 55 μl of PBS and mixed well. These dilutions are repeated to give a full titration of α-Gal BOEL in the desired concentration range.
# CHO-K1 cells, which lack α-Gal epitopes, are resuspended in Dulbecco's PBS (DPBS) at 37° C. and centrifuged at 1000 rpm for 5 minutes. […]
# (§2) An aliquot of the cell suspension (45 μl) is transferred to all tubes of α-Gal BOEL and mixed gently by inversion and incubated for 30 minutes at 37° C. […] The cell suspension (25 μl) is transferred either to an assay plate (standard white 96-well plate for luminescence readout (available from Corning)) to perform the CDC assay (A) or 50 μl transferred to a poly-d-lysine coated plate (available from Sigma) for the in-cell ELISA (B) to measure incorporation into cell membranes.
# Anti-Gal antibody (from a range of sources, mouse anti-Gal containing plasma in this example) is added (25 μl/well) to the CDC assay plate (A) and then incubated for 30 minutes at 37° C. […] The human serum (containing active complement) is diluted in warm media (to a pre-determined level by titration in the assay) and 50 μl added to each well. […] This reagent luminescence is proportional to the […]. […] Luminescence output is measured using a standard 96-well plate reader (see FIG. 3).
# [3] = tested on: CHO-K1 cells; experiment: General cellular toxicity (CDC procedure without human serum); format: cell-based; details: absence of human serum; up to 500 μg/ml; CellTitreGlo
# Method: as §1
# (§3) CHO-K1 cells, which lack α-Gal epitopes, are resuspended in Dulbecco's PBS (DPBS) at 37° C. and centrifuged at 1000 rpm for 5 minutes. The supernatant is aspirated and the cell pellet resuspended to 1×10^7 cells/ml in 450 μl DPBS (37° C.). The cell pellet is washed again to remove all traces of serum.
# as §2, with “membranes. […]” for “membranes.”
# General cellular toxicity was measured by following the CDC assay procedure above but replacing human serum with pre-warmed media. […]
# [4] = tested on: B16-F10 cells; experiment: Complement deposition assay (flow cytometry), mouse serum; format: cell-based; details: B16 mouse melanoma cells, 500 μg/ml, 2.5% mouse serum
# Method: (§4) 1×10^6 B16-F10 and CHO-K1 cells were harvested from growing cultures and incubated with 500 μg/ml αGal BOEL in PBS for 1 hour at 37° C., after which the cells were washed 3 times with PBS. After washing the CHO-K1 cells were incubated with either 2.5% normal (NHS) or heat-inactivated (HI NHS) human serum for 10 minutes at 37° C. The B16-F10 cells were incubated with either 2.5% serum from normal GT−/− mice (NMS) or 2.5% serum from pig kidney homogenate immunised mice (I NMS) for 10 minutes at 37° C. The cells were placed on ice and washed twice with ice-cold cell staining buffer (PBS+0.1% BSA). The cells were incubated with either anti-C3b (C3b, Pierce MAI-70054, diluted 1:1000 in cell staining buffer) or anti-SC5b-9 (MAC, Quidel A239, diluted 1:100 in cell staining buffer) for 30 minutes on ice. The cells were washed twice with ice cold cell staining buffer and incubated with FITC goat anti-mouse IgG (Abcam ab97022, diluted 1:2000 in cell staining buffer) for 30 minutes on ice. After 2 further washes with ice-cold cell staining buffer the cells were resuspended in ice-cold cell staining buffer plus 7-AAD (Biolegend 420403). The cells were analysed using a Beckman Coulter Cytomics FC500 flow cytometer, with data captured in the FL-1 channel. Data on the histograms presented are gated on live cells.
# [5] = tested on: CHO-K1 cells; experiment: Complement deposition assay (flow cytometry), human serum; format: cell-based; details: 500 μg/ml, 2.5% human serum
# Method: as §4
# [6] = tested on: CHO-K1 cells; experiment: In-cell ELISA to measure incorporation of α-Gal BOEL into cells; format: cell-based; details: CHO-K1 cells incubated 30 minutes at 37° C.; M86 primary antibody
# Method: as §1, §3
# as §2, with “membranes. […]” for “membranes.”
# 100 μL/well of TMB Substrate is added the plate incubated at room temperature, protected from light. […] The absorbance at 450 nm is measured within 30 minutes of stopping the reaction (see FIG. 5).
# [7] = tested on: monoclonal mouse anti-Gal IgM (M86 hybridoma supernatant); experiment: ELISA to demonstrate binding to anti-Gal antibodies; details: α-Gal BOEL dried in ELISA wells, serial dilution from 2 mg/ml
# Method: A 96-well plate is first coated with α-Gal BOEL (obtained from Sigma as FSL-Galili(tri)™, Catalogue No. F9432). 50 μL PBS is added to each well. α-Gal BOEL is resuspended in PBS to a concentration of 2 mg/ml and 50 μL added to a well. Serial dilutions are performed by transferring 50 μL into wells across the plate making sure that each well is thoroughly mixed before transfer. The plate is left overnight to dry.
# 150 μL of blocking buffer (1×PBS/1% BSA) is added to the dry wells. The plate is covered and incubated at 37° C. for 2 hours. The well contents are discarded and the wells washed with PBS. 50 μL of the primary anti-Gal antibody (monoclonal mouse anti-Gal IgM in this example, M86 hybridoma supernatant) is added to each well. The plate is incubated at room temperature for 2 hours. The plate is washed 3 times with 200 μL washing buffer (1×PBS, 0.05% Tween).
# 50 μL of secondary goat anti-mouse IgM-HRP solution (Accurate Chemical; Catalogue No. JGM035020) is added to each well. The plate is covered and incubated at room temperature for 1 hour and then is washed 3 times with 200 μL washing buffer. 100 μL of a standard OPD (o-Phenylenediamine dihydrochloride) solution (e.g. Sigma; Catalogue No. P8287) is added to each well, incubated for 5 minutes and then 50 μL of stop solution (1 M sulfuric acid) is added. The well absorbances are immediately read at 492 nm (A492) (see FIG. 2).
smiles,measurement,setting,value
"CCCCCCCC/C=C\CCCCCCCC(=O)OC[C@H](COP(=O)(O)OCCNC(=O)CCCCC(=O)NCCCO[C@@H]1OC(CO)[C@@H](O[C@@H]2OC(CO)[C@H](O)[C@H](O[C@H]3OC(CO)[C@H](O)[C@H](O)C3O)C2O)[C@H](O)C1NC(C)=O)OC(=O)CCCCCCC/C=C\CCCCCCCC (stereo partly drawn) [α-Gal BOEL, (9Z,9′Z)-(2R)-3-(((2-(6-((3-(((2R,3R,4R,5S,6R)-3-acetamido-5-(((2S,3R,4S,5S,6R)-3,5-dihydroxy-6-(hydroxymethyl)-4-(((2R,3R,4S,5R,6R)-3,4,5-trihydroxy-6-(hydroxymethyl)tetrahydro-2H-pyran-2-yl)oxy)tetrahydro-2H-pyran-2-yl)oxy)-4-hydroxy-6-(hydroxymethyl)tetrahydro-2H-pyran-2-yl)oxy)propyl)amino)-6-oxohexanamido)ethoxy)(hydroxy)phosphoryl)oxy)propane-1,2-diyl bis(octadec-9-enoate)]",mice protected from secondary tumour development,"[1]; 1 mg intratumoural, anti-Gal producing (immunized) GT KO mice, up to 28 days",80%
same,degree of protection versus 0.1-mg and 0.5-mg doses,"[1]; 1 mg intratumoural, anti-Gal producing GT KO mice, up to 32 days",higher degree of protection
same,protective activity against secondary tumour development,"[1]; 1 mg intratumoural, non-immunized GT KO mice (lacking anti-Gal)",lacked protective activity
same,activity response across doses (protection from distal tumour),"[1]; 0.1-mg to 1-mg intratumoural doses in 100 μL vehicle, side-by-side, anti-Gal producing GT KO mice",dose-dependent activity response
same,EC50,"[2]; Cricetulus griseus, CHO-K1, inhibition of CDC, CHO-K1 cells, mouse anti-Gal plasma, human serum, CellTiterGlo, single independent experiment, read-out: EC50",1.36 µg/mL
same,EC50,"[2]; Cricetulus griseus, CHO-K1, inhibition of CDC, over 4 independent experiments, read-out: Geomean / mean EC50",1.35 µg/mL
same,EC50,"[2]; inhibition of CDC, CHO-K1 cells, mouse anti-Gal plasma, human serum, CellTiterGlo, single independent experiment",1.24 µg/mL and 1.38 µg/mL and 1.43 µg/mL
same,impact on cell viability / overt cytotoxicity,[3],no impact on cell viability
same,deposition of complement protein C3b,[4],leads to the deposition
same,deposition of complement protein MAC,[4],leads to the deposition
same,deposition of complement protein C3b,[5],leads to the deposition
same,deposition of complement protein MAC,[5],leads to the deposition
same,incorporation into cells (absorbance at 450 nm),[6],can be detected on the surface of CHO-K1 cells
same,binding of monoclonal anti-Gal antibody (A492),[7],binds to α-Gal epitopes on the α-Gal BOEL molecules
